Results taken from patent publication US20140080758A1, “TREATMENT OF KIDNEY DISORDERS WITH VIP FRAGMENTS” (Vectus […] Limited, priority 2008, published 2014).

System: spontaneously hypertensive rats (SHR) on 2.2% salt diet
Assay: Renal interstitial fibrosis after 4-week peptide infusion in SHR on 2.2% salt diet
Type: in vivo, rat
Settings: infusion 5 pmol/kg/min intravenously by osmotic minipump for 4 weeks, versus vehicle control, fibrosis as percent surface area
Source text: For kidney fibrosis experiments, two types of rats were used, spontaneously hypertensive rats (SHR) and normotensive control Wistar-Kyoto rats (WKY) (animals were obtained from Australian Animal Resources, Perth, Western Australia, Australia)
i) Male spontaneously hypertensive (SHR) rats on 2.2% salt diet ii) Male Wistar Kyoto (WKY) rats on 4.4% salt diets
Commencing at 12 weeks of age, the rats were acclimatized to tail cuff blood pressure measurements and handling for 2 weeks. They then underwent operative insertion of an osmotic minipump (Alzet—Manufacturer: Durect Corporation, Cupertino, Calif., USA; Supplier: Bioscientific Gymea, NSW, Australia) which was designed to deliver vehicle alone (Hartman's solution, Baxter Health Care Corporation, USA)—(Controls) or VIP, VIP fragment or analogue at a dose of 4 pmol/kg/min or 5 pmol/kg/min intravenously.
The infusion was continued for 4 weeks, during which the rats were weighed and their blood pressures measured twice weekly. At the end of the 4 week infusion period, the rats were anaesthetized and their kidneys harvested. […]
For quantitation of interstitial fibrosis, twenty microscopic fields from each kidney were digitized and the amount of fibrosis in each determined as percent surface area using Image-Pro Plus V5.0 software (Cybernetics). The mean value for each rat and subsequently for each infusion group was then determined.

“His-Ser-Asp-Ala-Val-Phe-Thr-Asp-Asn-Tyr-Thr-Arg-Leu-Arg-Lys-Gln-Met-Ala-Val-Lys-Lys-Tyr-Leu-Asn-Ser-Ile-Leu-Asn (HSDAVFTDNYTRLRKQMAVKKYLNSILN; listed as Homo sapiens) [VIP]” was tested, and the renal interstitial fibrosis was “reductions in renal interstitial fibrosis”.
